Test results reported in ChEMBL document CHEMBL1141441, “Crystallographic investigation of the inhibition mode of a VIM-2 metallo-beta-lactamase from Pseudomonas aeruginosa by a mercaptocarboxylate inhibitor” (J Med Chem, 2007).

Assay: Inhibition of IMP1 expressed in Escherichia coli BL21 (DE3)

## O=C(O)C(CS)CCCc1ccccc1 (racemic)
  Ki: 1.66 µM
